Test results reported in patent EP1214940B1, “Methods of enhancing the therapeutic activity of NSAIDs and compositions of zwitterionic phospholipids useful therein” (Board of Regents, The University of Texas System, priority 1995, dated 1996).
Where two headings read alike, the source gives them in different places. Marks after values point to notes of the source that are not given here.

Assays:
rats [1] = experiment: Rat fever model (Brewer's yeast), antipyretic activity by rectal temperature; assay type: in vivo; settings: for enhancement in anti-pyretic activity of the NSAID/DPPC complex compared to the NSAID alone: sodium salts complexed with equimolar DPPC, first three hours after intragastric administration
Experimental: Similar antipyretic analyses were performed with the sodium salts of the following NSAIDs: diclofenac (10 mg/kg), indomethacin (10 mg/kg) and naproxen (30 mg/kg), alone and complexed with an equimolar concentration of DPPC. All test solutions were titrated to a pH of 4.5 prior to intragastric administration. Rectal temperatures were monitored in conscious, restrained rats at all indicated times.
The ability of NSAIDs (administered alone and complexed with DPPC) to reduce fever in rats was determined.

Platelet Aggregation = experiment: Ristocetin platelet aggregation test; assay type: cell-based
[2] = system: Foreign-Body Granuloma Formation in Rats; experiment: Foreign-body granuloma formation in rats, low dose aspirin (9 mg/kg) alone or with phospholipid/neutral lipids; assay type: in vivo; settings: aspirin 9 mg/kg intragastric twice a day, 5 doses, starting five days after implantation; (n); spread in next table row
Description: Sterile tared string was surgically implanted. Five days later rats were intragastrically administered twice a day with either saline, ASA alone, or ASA lipid mixtures.

[3] = system: Foreign-Body Granuloma Formation; experiment: Rat foreign-body granuloma formation (implanted cotton string), two-week daily treatment; assay type: in vivo, rats; settings: two weeks, (dry weight of string with adherent granuloma tissue - dry weight of string)/dry weight of string
Description: Sterile tared cotton string was surgically implanted (bilaterally) under the abdominal skin of ether anesthetized rats on day 1 of the study period, and then randomly placing rats in a group to be daily treated with saline, aspirin or the NSAID complexed with Phospholipon 90G over a two-week period.
At the completion of the study period the string with the adherent granuloma tissue was surgically dissected from the euthanized rats and dried in a vacuum for several days at room temperature, until a baseline dry weight was obtained. The difference between this value and the initial dry weight of the string prior to implantation divided by the latter value provided an estimate of the weight of granuloma tissue.

rats [4] = assay type: in vivo; settings: aspirin 90mg/kg daily intragastric over 2 weeks, (n) rats/group
Experimental: Rats were treated with ASA over a two week period to investigate the chronic effects of NSAID exposure (in the presence and absence of phospholipids) on hematocrit, gastric mucosal hydrophobicity, and granuloma formation. […] The test solutions (saline, ASA and ASA/Phospholipon 90G complex) were intragastrically administered between 8AM - 9AM daily during the two week study period. In these chronic exposure experiments, ASA was complexed with an equimolar concentration of Phospholipon 90G (purified soya lecithin, prepared and obtained from Nattermann GmbH of Cologne, Germany) instead of DPPC. At the completion of the study period, blood was collected into a capillary tube for the determination of hematocrit and the stomach was excised for contact angle analysis.
Contact angle analysis was performed with the use of a goniometer on excised gastric mucosal tissue, that was lightly blotted and dried, as previously outlined (Hills et al., 1983; Goddard et al., 1987; Goddard et al., 1990). Briefly, this was accomplished by applying a droplet of water (~ 5µl) to the tissue surface, and employing the telescopic eyepiece of the goniometer to measure the maximal angle that is dissected at the triple point, where the solid/liquid/ and air interface meet.

rats [5] = experiment: Acute gastric lesions in rats after salicylate-based NSAID and 0.6 N HCl challenge; assay type: in vivo, male Sprague Dawley rats; settings: intragastrically administered in association with DPPC versus without; rats challenged with 0.6N HCl; FIG. 4A
Experimental: Ten minutes later, the rats were intragastrically challenged with 1 ml of 0.6 N HCI.
One of a number of NSAIDs was intragastrically administered to rats alone or preassociated with an equimolar concentration of DPPC or Phospholipon 90 G (purified soya lecithin, prepared by Nattermann GmbH of Cologne Germany) in several models of acute and chronic injury of the upper GI tract. Two contrasting animal models were employed to determine the ability of DPPC to protect against acute NSAID injury to the GI tract. For salicylate-based NSAIDs, which primarily induce stomach injury, gastric lesions were scored in fasted rats who were initially treated with aspirin or salicylate alone or complexed with DPPC and challenged 10 minutes later with a supra-physiological dose of HCl. For non-salicylate NSAIDs (indomethacin, diclofenac and naproxen) which predominantly induce injury to the mid-distal regions of the small intestine, the quantity of intraluminal blood was assessed in the distal half of the small intestine of rats who were pre- and post-treated with the Nitric Oxide synthetase inhibitor, L-NAME (N-nitro-L-arginine methyl ester).

[6] = assay type: physicochemical; settings: NSAID sodium salt 100mM, 25°C, neutral conditions, alone or sonicated with 0.5 mM DPPC or DPPG; the sodium-salicylate line is with DPPC; FIG. 3
Experimental: The diffusion of aspirin (alone and complexed with phospholipid) from water into cyclohexane was used as a model to estimate the membrane permeability of the drug.
The sodium salt of ASA (also salicylate) was dissolved in 5 ml of water at a final concentration of 100mM (pH adjusted to 6.0) and gently stirred at 25°C. An equal volume of cyclohexane was layered over the aqueous solution and the entry of the NSAID into the organic phase was monitored fluorometrically over time. In order to determine the effect of phospholipid association on the lipid permeability of the NSAID, ASA (or salicylate) at the above concentration was sonicated in the presence of 0.5 mM phospholipid (DPPC or DPPG) in water (adjusted to a pH of 7), and its rate of diffusion into the cyclohexane phase was measured fluorometrically. […] This entire process could be completed in < 30 seconds.

Compound: COc1ccc2cc([C@H](C)C(=O)O)ccc2c1 [naproxen, 2-(6-methoxy-2-naphthyl)-propinic acid]
- anti-pyretic activity with DPPC versus NSAID alone (rats [1]; naproxen 25 mg/kg dose with DPPC, FIG. 19): ability of DPPC to enhance the anti-pyretic activity
- enhancement in anti-pyretic activity of the NSAID/DPPC complex compared to the NSAID alone (rats [1]): -0.30 °C

Compound: CCCCCCCCCCCCCCCC(=O)OCC(COP(=O)([O-])OCC[N+](C)(C)C)OC(=O)CCCCCCCCCCCCCCC (stereo not drawn) [DPPC, dipalmitoyl phosphatidylcholine]
- activity at 1000 µM (Platelet Aggregation; High Ristocetin (1.5 mg/ml) Test, ASA 0.00, DPPC alone at 1 mM, read-out: % Platelet Aggregation): 100%
- activity at 1000 µM (Platelet Aggregation; Low Ristocetin (0.75) mg/ml Test, ASA 0.00, DPPC alone at 1 mM, read-out: % Platelet Aggregation): 94%

Compound: CC(=O)Oc1ccccc1C(=O)O [ASA, acetyl-salicylic acid]
- Foreign-Body Granuloma Formation [2]: 3.89(8)
- Granuloma Formation ([3]; ASA 90 mg/kg): 1.90 ± 0.10^b
- Granuloma Formation ([3]; ASA 140 mg/kg): 1.07 ± 0.09^b
- Gastric Mucosal Hydrophobicity (degrees, Contact Angle) (rats [4]): 15.8 ± 6.6^c(6) degrees
- Hematocrit (rats [4]): 47.8 ± 0.2^c(10)
- injurious potential to induce gastric lesions (rats [5]): remarkably decreased
- passive diffusion (flux) from water into cyclohexane [6]: negligible
- activity at 10 µM (Platelet Aggregation; read-out: % Platelet Aggregation, High Ristocetin (1.5 mg/ml) Test, ASA 0.01mM, DPPC equimolar where added): 100%
- activity at 100 µM (Platelet Aggregation; read-out: % Platelet Aggregation, High Ristocetin (1.5 mg/ml) Test, ASA 0.1 mM, DPPC equimolar where added): 83%
- activity at 1000 µM (Platelet Aggregation; read-out: % Platelet Aggregation, High Ristocetin (1.5 mg/ml) Test, ASA 1.0 mM, DPPC equimolar where added): 95%
- activity at 1000 µM (Platelet Aggregation; read-out: % Platelet Aggregation, High Ristocetin (1.5 mg/ml) Test, ASA 1.0 mM, second study, DPPC equimolar where added): 100%
- activity at 10 µM (Platelet Aggregation; read-out: % Platelet Aggregation, Low Ristocetin (0.75) mg/ml Test, ASA 0.01mM, DPPC equimolar where added): 65%
- activity at 100 µM (Platelet Aggregation; read-out: % Platelet Aggregation, Low Ristocetin (0.75) mg/ml Test, ASA 0.1mM, DPPC equimolar where added): 26%
- activity at 1000 µM (Platelet Aggregation; read-out: % Platelet Aggregation, Low Ristocetin (0.75) mg/ml Test, ASA 1.0mM, second study, DPPC equimolar where added): 39%
- activity at 1000 µM (Platelet Aggregation; read-out: % Platelet Aggregation, Low Ristocetin (0.75) mg/ml Test, ASA 1.0mm, DPPC equimolar where added): 80%
- antipyretic activity (rats [1]; ASA 4.5 mg/kg (subthreshold), alone or complexed with equimolar DPPC, FIG. 9): no antipyretic activity alone
- antipyretic activity (rats [1]; ASA 9.0 mg/kg (subthreshold), intragastric, alone or with equimolar phospholipid, FIG. 6 (five hour period) and FIG. 8): does not have significant antipyretic activity
- antipyretic activity after antisecretory pre-treatment (rats [1]; aspirin 20 mg/kg (FIG. 22: 18 mg/kg) in conjunction with proton pump inhibitor omeprazole (Prilosec), IP 150 mg/kg two hours before): failed to reduce fever
- antipyretic activity after antisecretory pre-treatment (rats [1]; aspirin 20 mg/kg (FIG. 23: 18 mg/kg) in conjunction with Ranitidine (Zantac), IP 2 mg/kg 1 hour before): failed to reduce fever
- antipyretic activity (rats [1]; aspirin alone at doses of < 10 mg/kg, 4 hour study period, FIG. 7): failed to reduce the fever

Compound: COc1ccc2c(c1)c(CC(=O)O)c(C)n2C(=O)c1ccc(Cl)cc1 [indomethacin, acetic acid]
- anti-pyretic activity with DPPC versus NSAID alone (rats [1]; indomethacin 10 mg/kg with DPPC, FIG. 18): ability of DPPC to enhance the anti-pyretic activity of ASA was seen
- enhancement in anti-pyretic activity of the NSAID/DPPC complex compared to the NSAID alone (rats [1]): -0.28 °C

Compound: O=C(O)c1ccccc1O [salicylate, salicylic acid]
- injurious potential to induce gastric lesions (rats [5]): remarkably decreased
- anti-pyretic activity with DPPC versus NSAID alone (rats [1]; salicylic acid 70 mg/kg dose with DPPC, FIG. 21): ability of DPPC to enhance the anti-pyretic activity

Compound: O=C(O)Cc1ccccc1Nc1c(Cl)cccc1Cl [diclofenac, 2-(2,6-dichlorophenylamino)-phenylacetic acid]
- anti-pyretic activity with DPPC versus NSAID alone (rats [1]; diclofenac 10 mg/kg with DPPC, FIG. 20): ability of DPPC to enhance the anti-pyretic activity
- enhancement in anti-pyretic activity of the NSAID/DPPC complex compared to the NSAID alone (rats [1]): -0.29 °C
